According to patent publication US20250214967A1, “FAK DEGRADERS, PHARMACEUTICAL COMPOSITIONS, AND THERAPEUTIC APPLICATIONS” (Berrybio (Shanghai) Limited, priority 2022, published 2025):

Columns and labels:
FAK [1] = molecular target: T1, FAK (Homo sapiens (Human), UniProt Q05397); assay: FAK Degradation Assay (Western blot, FAK/GAPDH); format: cell-based; conditions: MDA-MB-231 cells, 24 h treatment, Western blot normalized to DMSO; for DC50: read-out: DC50 (half-maximal degradation concentration), FAK Degradation; for Dmax: read-out: Dmax (maximal degradation), FAK Degradation
Protocol: H2122 (4×10^5), MIA PaCa-2 (6×10s), or MDA-MB-231 cells (6×10^5) per well were seeded into a 6-well plate containing 2 mL of complete culture medium (RPMI-1640 for H2122 and MDA-MB-231, and DMEM/F12 for MIA PaCa-2, supplemented with 10% FBS and 1% penicillin/streptomycin). The cells were cultured overnight at 37° C. in the presence of 5% C02 before treated with a compound in a series of concentrations for 24 h. The cells were then washed with ice-cold Dulbecco's phosphate-buffered saline (DPBS). A radioimmuno-precipitation assay (RIPA) buffer was added to lyse the cells on ice for 20 min. The cells were then scrapped using cell scraper and collected in a 1.5 mL tube, which was centrifuged at 14,000 g and 4° C. for 15 min. The supernatant was collected and the total protein concentration of each sample was determined using a PIERCE™ BCA protein assay kit. The supernatant was diluted to the same protein concentration with the RIPA buffer after the BCA assay. Samples of the same protein amount were mixed with 4× a lithium dodecyl sulfate (LDS) sample buffer and boiled at 95° C. for 5 min. The denatured samples were used for electrophoresis.
For Western blot, the same volume containing ˜50 μg protein for each sample was loaded onto 4-12% Bis-Tris protein gel. The gel was run at 80 V for 0.5 h and at 120 V for 1 h. When the electrophoresis was completed, an IBLOT™ 2 gel transfer device was used to transfer FAK and GAPDH proteins at 20 V for 7 min. All the membranes were blocked in 5% nonfat dry milk in a TBST buffer at RT for 1 h and then incubated with primary antibodies (anti-FAK and anti-GAPDH) in a TBST buffer containing 5% BSA at 4° C. overnight. The membranes were washed with the TBST buffer and then incubated with secondary antibodies (goat anti-rabbit IgG H&L for FAK and goat anti-mouse IgG H&L for GAPDH) at room temperature for 1 h. Blots were visualized using an IMAGEQUANT™ LAS-4000. The chemiluminescent signals from ECL™ Western blotting reagents were captured. The band integrated intensity from each 16-bit blot image was used for quantitation. The FAK/GAPDH signal ratios of each sample were normalized using DMSO as a control and the normalized data for each compound were used to obtain its half-maximal degradation concentration (DC50) and maximal degradation (Dmax).
Target sequence in this assay (Q05397 whole entry): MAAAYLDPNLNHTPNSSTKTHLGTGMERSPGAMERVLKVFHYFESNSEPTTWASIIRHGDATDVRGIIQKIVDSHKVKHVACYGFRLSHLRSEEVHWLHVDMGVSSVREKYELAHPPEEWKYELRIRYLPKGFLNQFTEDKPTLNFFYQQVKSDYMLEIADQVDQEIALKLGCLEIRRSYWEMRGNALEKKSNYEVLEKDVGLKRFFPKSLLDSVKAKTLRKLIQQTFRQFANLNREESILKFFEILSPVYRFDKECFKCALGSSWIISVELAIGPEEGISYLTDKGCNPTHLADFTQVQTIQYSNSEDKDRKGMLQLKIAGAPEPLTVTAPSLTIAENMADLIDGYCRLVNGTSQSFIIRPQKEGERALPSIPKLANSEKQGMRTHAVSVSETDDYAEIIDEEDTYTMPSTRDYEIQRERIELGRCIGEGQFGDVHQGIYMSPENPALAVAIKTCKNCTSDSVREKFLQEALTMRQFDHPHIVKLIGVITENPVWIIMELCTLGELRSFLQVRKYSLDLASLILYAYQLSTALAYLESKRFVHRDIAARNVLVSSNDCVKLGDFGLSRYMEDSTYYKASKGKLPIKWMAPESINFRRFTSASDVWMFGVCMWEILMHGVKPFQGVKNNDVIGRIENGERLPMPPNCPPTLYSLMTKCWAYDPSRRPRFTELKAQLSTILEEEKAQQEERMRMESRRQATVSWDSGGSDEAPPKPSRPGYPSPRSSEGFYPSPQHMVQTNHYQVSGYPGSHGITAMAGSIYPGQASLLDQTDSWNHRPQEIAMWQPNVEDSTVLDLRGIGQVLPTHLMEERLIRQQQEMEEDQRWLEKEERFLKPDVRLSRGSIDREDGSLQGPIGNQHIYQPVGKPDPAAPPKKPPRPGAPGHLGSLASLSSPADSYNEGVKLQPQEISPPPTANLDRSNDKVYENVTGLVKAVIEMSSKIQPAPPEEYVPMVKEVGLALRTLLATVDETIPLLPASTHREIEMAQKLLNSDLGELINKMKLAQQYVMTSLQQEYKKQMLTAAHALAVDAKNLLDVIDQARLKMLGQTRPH

FAK [2] = molecular target: T1, FAK; assay: FAK Kinase Assay (TR-FRET, LanthaScreen); format: biochemical; conditions: FAK 1 nM, ATP 6.8 μM, fluorescein-polyGT 0.2 μM, 30 min; read-out: IC50, FAK Inhibition
Protocol: The inhibitory activity of a compound against FAK was determined in a buffer containing 5 mM HEPES, pH 7.5, 0.01% Triton, 0.5 mM EGTA, and 0.01% BRIJ™-35 in a 384-well assay plate. The assay was carried out in the presence of the FAK at 1 nM and ATP at 6.8 μM using fluorescein-polyGT (0.2 μM) as an FAK substrate. Each assay mixture was incubated at room temperature for 30 min. A LANTHASCREEN® Tb-PY20 antibody was added to each well to stop the enzymatic reaction. The plate was incubated at room temperature for 60 min before reading on an ENVISION using TR-FRET module (excitation at 340 nm and emission at 520 nm and 495 nm).
Target sequence in this assay (Q05397 whole entry, species assumed): as the sequence (Q05397 whole entry) above

Row | DC50 (FAK [1]) | Dmax (FAK [1]) | Compound | IC50 (FAK [2])
1 | 1980 nM | 100% | Cc1cc(OCCOCCOCCOc2ccc3c(c2)C(=O)N(C2CCC(=O)NC2=O)C3=O)ccc1Nc1ncc(C(F)(F)F)c(NCc2cccc(P(C)(C)=O)c2)n1 (stereo not shown) [Compound A3, 5-(2-(2-(2-(4-((4-((3-(Dimethylphosphoryl)benzyl)amino)-5-(trifluoromethyl)-pyrimidin-2-yl)amino)-3-methylphenoxy)ethoxy)ethoxy)ethoxy)-2-(2,6-dioxopiperidin-3-yl)-isoindoline-1,3-dione] | 223 nM
2 | 2.5 nM | 99% | CN(c1nccnc1CNc1nc(Nc2ccc(CNC3CCN(CC4CCN(c5ccc6c(c5)C(=O)N(C5CCC(=O)NC5=O)C6=O)CC4)CC3)cc2)ncc1C(F)(F)F)S(C)(=O)=O (stereo not shown) [Compound A6, N-(3-(((2-((4-(((1-((1-(2-(2,6-Dioxopiperidin-3-yl)-1,3-dioxoisoindolin-5-yl)-piperidin-4-yl)methyl)piperidin-4-yl)amino)methyl)phenyl)amino)-5-(trifluoromethyl)pyrimidin-4-yl)amino)methyl)pyrazin-2-yl)-N-methylmethanesulfonamide] | 0.39 nM
3 | 0.83 nM | 94% | CN(c1nccnc1CNc1nc(Nc2ccc(CN[C@@H]3CCN(c4ccc5c(c4)C(=O)N(C4CCC(=O)NC4=O)C5=O)C[C@@H]3F)cc2)ncc1C(F)(F)F)S(C)(=O)=O (stereo partly drawn) [Compound A36, N-(3-(((2-((4-((((3S,4R)-1-(2-(2,6-Dioxopiperidin-3-yl)-1,3-dioxoisoindolin-5-yl)-3-fluoropiperidin-4-yl)amino)methyl)phenyl)amino)-5-(trifluoromethyl)pyrimidin-4-yl)amino)-methyl)pyrazin-2-yl)-N-methylmethanesulfonamide] | –
4 | 1.3 nM | 94% | O=C1CCC(N2C(=O)c3ccc(N4CCC(NCc5ccc(Nc6ncc(C(F)(F)F)c(Oc7cccc8c7C(=O)CC8)n6)cc5)CC4)cc3C2=O)C(=O)N1 (stereo not shown) [Compound A27, 2-(2,6-dioxopiperidin-3-yl)-5-(4-((4-((4-((3-oxo-2,3-dihydro-1H-inden-4-yl)oxy)-5-(trifluoromethyl)pyrimidin-2-yl)amino)benzyl)amino)piperidin-1-yl)isoindoline-1,3-dione] | –
5 | 0.6 nM | 99% | CN(c1nccnc1CNc1nc(Nc2ccc(CNC3CCN(c4ccc5c(c4)C(=O)N(C4CCC(=O)NC4=O)C5=O)CC3)cc2)ncc1C(F)(F)F)S(C)(=O)=O (stereo not shown) [Compound A7, N-(3-(((2-((4-(((1-(2-(2,6-Dioxopiperidin-3-yl)-1,3-dioxoisoindolin-5-yl)-piperidin-4-yl)amino)methyl)phenyl)amino)-5-(trifluoromethyl)pyrimidin-4-yl)amino)methyl)-pyrazin-2-yl)-N-methylmethanesulfonamide] | 0.47 nM
6 | 5.6 nM | 98% | CN(c1nccnc1CNc1nc(Nc2cccc(C(=O)NC3CCN(c4ccc5c(c4)C(=O)N(C4CCC(=O)NC4=O)C5=O)CC3)c2)ncc1C(F)(F)F)S(C)(=O)=O (stereo not shown) [Compound A12, N-(1-(2-(2,6-dioxopiperidin-3-yl)-1,3-dioxoisoindolin-5-yl)piperidin-4-yl)-3-((4-(((3-(N-methylmethylsulfonamido)pyrazin-2-yl)methyl)amino)-5-(trifluoromethyl)pyrimidin-2-yl)amino)benzamide] | –
7 | 1.4 nM | 94% | CN(c1nccnc1CNc1nc(Nc2cccc(C(=O)N3CC(OC4CCN(c5ccc6c(c5)C(=O)N(C5CCC(=O)NC5=O)C6=O)CC4)C3)c2)ncc1C(F)(F)F)S(C)(=O)=O (stereo not shown) [Compound A13, N-(3-(((2-((3-(3-((1-(2-(2,6-dioxopiperidin-3-yl)-1,3-dioxoisoindolin-5-yl)-piperidin-4-yl)oxy)azetidine-1-carbonyl)phenyl)amino)-5-(trifluoromethyl)pyrimidin-4-yl)-amino)methyl)pyrazin-2-yl)-N-methylmethanesulfonamide] | –
8 | 0.7 nM | 87% | CS(=O)(=O)c1cccc(CNc2nc(Nc3ccc(CNC4CCN(c5ccc6c(c5)C(=O)N(C5CCC(=O)NC5=O)C6=O)CC4)cc3)ncc2C(F)(F)F)c1 (stereo not shown) [Compound A24, 2-(2,6-Dioxopiperidin-3-yl)-5-(4-((4-((4-((3-(methylsulfonyl)benzyl)amino)-5-(trifluoromethyl)pyrimidin-2-yl)amino)benzyl)amino)piperidin-1-yl)isoindoline-1,3-dione] | –
9 | 0.87 nM | 91% | CN1Cc2cccc(Oc3nc(Nc4ccc(CNC5CCN(c6ccc7c(c6)C(=O)N(C6CCC(=O)NC6=O)C7=O)CC5)cc4)ncc3C(F)(F)F)c2C1=O (stereo not shown) [Compound A28, 2-(2,6-dioxopiperidin-3-yl)-5-(4-((4-((4-((2-methyl-3-oxoisoindolin-4-yl)oxy)-5-(trifluoromethyl)pyrimidin-2-yl)amino)benzyl)amino)piperidin-1-yl)isoindoline-1,3-dione] | –
10 | 0.9 nM | 84% | COc1cc(CN[C@@H]2CCN(c3ccc4c(c3)C(=O)N(C3CCC(=O)NC3=O)C4=O)C2)c(F)cc1Nc1ncc(C(F)(F)F)c(Oc2cccc3c2C(=O)N(C)C3)n1 (stereo partly drawn) [Compound A58, 2-(2,6-Dioxopiperidin-3-yl)-5-((R)-3-((2-fluoro-5-methoxy-4-((4-((2-methyl-3-oxoisoindolin-4-yl)oxy)-5-(trifluoromethyl)pyrimidin-2-yl)amino)benzyl)amino)pyrrolidin-1-yl)isoindoline-1,3-dione] | –
11 | 0.71 nM | 89% | CNC(=O)c1ccccc1Nc1nc(Nc2ccc(CN[C@@H]3CCN(c4ccc5c(c4)C(=O)N(C4CCC(=O)NC4=O)C5=O)C[C@@H]3F)cc2)ncc1C(F)(F)F (stereo partly drawn) [Compound A39, 2-((2-((4-((((3S,4R)-1-(2-(2,6-Dioxopiperidin-3-yl)-1,3-dioxoisoindolin-5-yl)-3-fluoropiperidin-4-yl)amino)methyl)phenyl)amino)-5-(trifluoromethyl)pyrimidin-4-yl)amino)-N-methylbenzamide] | –

Row | Compound | DC50 (FAK [1]) | Dmax (FAK [1]) | IC50 (FAK [2])
12 | CN(c1nccnc1CNc1nc(Nc2ccc(C(=O)N3CCC(N4CCN(c5ccc6c(c5)C(=O)N(C5CCC(=O)NC5=O)C6=O)CC4)CC3)cc2)ncc1C(F)(F)F)S(C)(=O)=O (stereo not shown) [Compound A5, N-(3-(((2-((4-(4-(4-(2-(2,6-dioxopiperidin-3-yl)-1,3-dioxoisoindolin-5-yl)-piperazin-1-yl)piperidine-1-carbonyl)phenyl)amino)-5-(trifluoromethyl)pyrimidin-4-yl)amino)-methyl)pyrazin-2-yl)-N-methylmethanesulfonamide] | 1.4 nM | 89% | 1.8 nM
13 | Cc1cc(OCCOCCOCCOc2ccc3c(c2)C(=O)N(C2CCC(=O)NC2=O)C3=O)ccc1Nc1ncc(C(F)(F)F)c(NCc2cccc(N(C)S(C)(=O)=O)c2)n1 (stereo not shown) [Compound A1, N-(3-(((2-((4-(2-(2-(2-((2-(2,6-dioxopiperidin-3-yl)-1,3-dioxoisoindolin-5-yl)oxy)ethoxy)ethoxy)ethoxy)-2-methylphenyl)amino)-5-(trifluoromethyl)pyrimidin-4-yl)-amino)methyl)phenyl)-N-methylmethanesulfonamide] | 7 nM | 89% | 4.5 nM
14 | CN(c1nccnc1CNc1nc(Nc2ccc(C(=O)NC3CCN(CC4CCN(c5ccc6c(c5)C(=O)N(C5CCC(=O)NC5=O)C6=O)CC4)CC3)cc2)ncc1C(F)(F)F)S(C)(=O)=O (stereo not shown) [Compound A4, N-(1-((1-(2-(2,6-dioxopiperidin-3-yl)-1,3-dioxoisoindolin-5-yl)piperidin-4-yl)methyl)piperidin-4-yl)-4-((4-(((3-(N-methylmethylsulfonamido)pyrazin-2-yl)methyl)amino)-5-(trifluoromethyl)pyrimidin-2-yl)amino)benzamide] | 0.5 nM | 92% | 0.4 nM
